Assay results as given in patent publication US20030087316A1, “Diagnostic markers of liver dysfunction” (priority 2001, published 2003).

What was measured:
[1] = target: T1, C1s (Homo sapiens, UniProt P09871); experiment: Peptidase (amidolytic) activity of purified C1s, chromogenic substrate, 96-well plate, OD 405 nm; format: biochemical; conditions: Table 2; C1s 100 nM, substrate S2288; 60 min at 4° C. with LBTI 1 mg/ml, SBTI I mg/ml, aprotinin 0.075 mg/ml, benzamidine 50 mM or Futhan 0.1 mg/ml; % of total activity without inhibitor; read-out: % Residual activity, C1s
T1 construct: purchased Advanced Research Technologies (San Diego, Calif.)
T1 sequence (P09871 438-688 limits assumed): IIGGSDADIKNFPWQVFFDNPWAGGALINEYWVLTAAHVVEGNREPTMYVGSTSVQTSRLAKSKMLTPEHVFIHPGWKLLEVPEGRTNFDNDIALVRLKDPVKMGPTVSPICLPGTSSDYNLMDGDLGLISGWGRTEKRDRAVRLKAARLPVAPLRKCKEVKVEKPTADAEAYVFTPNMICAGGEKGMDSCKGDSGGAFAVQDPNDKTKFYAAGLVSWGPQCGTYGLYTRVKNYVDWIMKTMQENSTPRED
T1 sequence (P09871 16-437 partner limits assumed): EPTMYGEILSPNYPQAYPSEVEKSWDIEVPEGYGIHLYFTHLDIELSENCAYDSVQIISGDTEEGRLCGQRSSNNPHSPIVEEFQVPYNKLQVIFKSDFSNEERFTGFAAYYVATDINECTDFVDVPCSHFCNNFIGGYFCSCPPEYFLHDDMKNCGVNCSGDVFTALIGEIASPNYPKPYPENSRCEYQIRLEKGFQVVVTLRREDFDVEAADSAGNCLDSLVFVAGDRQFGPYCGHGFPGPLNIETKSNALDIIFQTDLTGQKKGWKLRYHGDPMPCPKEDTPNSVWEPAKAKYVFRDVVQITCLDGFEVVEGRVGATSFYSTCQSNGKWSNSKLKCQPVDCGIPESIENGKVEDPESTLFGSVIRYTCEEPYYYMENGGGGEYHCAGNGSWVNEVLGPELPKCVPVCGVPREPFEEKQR
Description: (§1) The peptidase activity in plasma samples or of the purified enzymes were routinely determined at 37° C. in a 96-well plate. Each well contained 0.5 mM substrate in 100 μl of Tris-buffered saline (TBS)-EDTA buffer (50 mM Tris/150 mM NaCl/10 mM EDTA, pH 7.8) and the reaction was monitored using a microplate reader (Titertek Multiscan, Labsystems, Needham Heights, Mass.).
(§2) The enzymes C1s (100 nM), plasm in (100 nM), thrombin (100 nM), plasma kallikrein (20 nM), β-FXIIa (100 nM), trypsin (16 nM) or LTR EDTA plasma samples were incubated for 60 min at 4° C. with TBS-EDTA buffer containing either LBTI (1 mg/ml), SBTI (I mg/ml), aprotinin (0.075 mg/ml), benzamidine (50 mM), or Futhan (0.1 mg/ml), before mixing with the substrate. EDTA plasma samples from LTR were diluted 10 or 20-fold with TBS-EDTA. The chromogenic substrate AGLTR-pNA was used for all enzymes and LTR samples except C1s where the substrate S2288 was used. Based on the initial rate of increase in OD at 405 nm, the residual free enzyme level was calculated and expressed as a percentage of total activity without inhibitor added.
(§3) Ten-fold diluted normal EDTA plasma was added to each enzyme. The enzymes C1s (100 nM), plasmin (100 nM), thrombin (100 nM), plasma kallikrein (20 nM), β-FXIIa (100 nM), trypsin (16 nM) or LTR EDTA plasma samples were incubated for 60 min at 4° C. with TBS-EDTA buffer containing either C1INH (40 μg/ml), bdellin (50 μg/ml), hirudin (50 U/ml), PPACK 11(10 μM), or CTI (100 μg/ml), before adding the substrate. LTR samples were 10 or 20-fold diluted with TBS-EDTA. The chromogenic substrate AGLTR-pNA was used for all enzymes and LTP samples except C1s where the substrate S2288 was used. Based on the initial rate of increase in OD at 405 nm, the residual free enzyme was calculated and expressed as a percentage of total activity determined without inhibitor added.

[2] = target: T2, plasmin (Homo sapiens, UniProt P00747); experiment: Peptidase (amidolytic) activity of purified plasmin, chromogenic substrate, OD 405 nm; format: biochemical; conditions: Table 2; plasmin 100 nM, substrate AGLTR-pNA; 60 min at 4° C. with LBTI 1 mg/ml, SBTI I mg/ml, aprotinin 0.075 mg/ml, benzamidine 50 mM or Futhan 0.1 mg/ml; read-out: % Residual activity, Plasmin
T2 construct: purchased Calbiochem-Novabiochem Corp (La Jolla, Calif.)
Description: as §1, §2, §3

[3] = target: T3, thrombin (Homo sapiens, UniProt P00734); experiment: Peptidase (amidolytic) activity of purified thrombin, chromogenic substrate, OD 405 nm; format: biochemical; conditions: Table 2; thrombin 100 nM, substrate AGLTR-pNA; 60 min at 4° C. with LBTI 1 mg/ml, SBTI I mg/ml, aprotinin 0.075 mg/ml, benzamidine 50 mM or Futhan 0.1 mg/ml; read-out: % Residual activity, Thrombin
T3 construct: purchased Calbiochem-Novabiochem Corp (La Jolla, Calif.)

[4] = target: T4, plasma kallikrein (Homo sapiens, UniProt P03952); experiment: Peptidase (amidolytic) activity of purified plasma kallikrein, chromogenic substrate, OD 405 nm; format: biochemical; conditions: Table 2; plasma kallikrein 20 nM, substrate AGLTR-pNA; 60 min at 4° C. with LBTI 1 mg/ml, SBTI I mg/ml, aprotinin 0.075 mg/ml, benzamidine 50 mM or Futhan 0.1 mg/ml; read-out: % Residual activity, Plasma Kallikrein
T4 construct: The light chain of kallikrein contains the enzymatic domain; purchased Calbiochem-Novabiochem Corp (La Jolla, Calif.)
Description: as §1
(§4) […] EDTA plasma samples from LTR were diluted 10 or 20-fold with TBS-EDTA. The chromogenic substrate AGLTR-pNA was used for all enzymes and LTR samples except C1s where the substrate S2288 was used. Based on the initial rate of increase in OD at 405 nm, the residual free enzyme level was calculated and expressed as a percentage of total activity without inhibitor added.
(§5) Ten-fold diluted normal EDTA plasma was added to each enzyme. […] LTR samples were 10 or 20-fold diluted with TBS-EDTA. The chromogenic substrate AGLTR-pNA was used for all enzymes and LTP samples except C1s where the substrate S2288 was used. Based on the initial rate of increase in OD at 405 nm, the residual free enzyme was calculated and expressed as a percentage of total activity determined without inhibitor added.

[5] = target: T5, β-Factor XIIa (β-FXIIa) (Homo sapiens, UniProt P00748); experiment: Peptidase (amidolytic) activity of purified β-FXIIa, chromogenic substrate, OD 405 nm; format: biochemical; conditions: Table 2; β-FXIIa 100 nM, substrate AGLTR-pNA; 60 min at 4° C. with LBTI 1 mg/ml, SBTI I mg/ml, aprotinin 0.075 mg/ml, benzamidine 50 mM or Futhan 0.1 mg/ml; read-out: % Residual activity, β-FXIIa
T5 construct: β-Factor XIIa (β-FXIIa) was kindly provided by Dr. Mary J. Heeb; gift of Dr. Mary J. Heeb, The Scripps Research Institute
Description: as §1, §4, §5

[6] = system: trypsin; experiment: Peptidase (amidolytic) activity of purified trypsin, chromogenic substrate, OD 405 nm; format: biochemical; conditions: Table 2; trypsin 16 nM, substrate AGLTR-pNA; 60 min at 4° C. with LBTI 1 mg/ml, SBTI I mg/ml, aprotinin 0.075 mg/ml, benzamidine 50 mM or Futhan 0.1 mg/ml
Description: as §1, §2

[7] = system: proteinase(s) in EDTA plasma from LTR (kallikrein-like peptidase); experiment: Peptidase activity in EDTA plasma from liver transplant recipients (LTR), chromogenic substrate, OD 405 nm; format: biochemical, human; conditions: Table 2, substrate AGLTR-pNA, 60 min at 4° C. with LBTI 1 mg/ml, SBTI I mg/ml, aprotinin 0.075 mg/ml, benzamidine 50 mM or Futhan 0.1 mg/ml
Description: Blood samples were drawn into 5 ml EDTA tubes (Venoject; Terumo Corp., Elkton, Md.). The plasma was collected immediately by centrifugation at 2,000×g for 15 min at 4° C. The plasma samples were either processed immediately for analysis or stored at −70° C. Frozen samples were thawed at 4° C. prior to analysis.
as §1, §2, §3

[8] = system: all of the enzymes examined; experiment: General serine proteinase inhibitors on selected proteinases (summary over the enzymes); format: biochemical; conditions: Table 2; benzamidine 50 mM, Futhan 0.1 mg/ml
Description: as §1, §2

[9] = system: complement (three known pathways); conditions: defined levels of Futhan in combination with EDTA; cited from earlier work

T4 sequence (P03952 391-638 limits assumed): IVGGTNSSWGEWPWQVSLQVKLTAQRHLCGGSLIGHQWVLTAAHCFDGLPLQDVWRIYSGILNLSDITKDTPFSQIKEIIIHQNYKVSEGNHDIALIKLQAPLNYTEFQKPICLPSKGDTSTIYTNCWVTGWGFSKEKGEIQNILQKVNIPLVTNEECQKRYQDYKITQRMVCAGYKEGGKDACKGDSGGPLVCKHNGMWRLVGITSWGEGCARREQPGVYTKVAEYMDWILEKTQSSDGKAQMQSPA
T4 sequence (P03952 20-390 partner limits assumed): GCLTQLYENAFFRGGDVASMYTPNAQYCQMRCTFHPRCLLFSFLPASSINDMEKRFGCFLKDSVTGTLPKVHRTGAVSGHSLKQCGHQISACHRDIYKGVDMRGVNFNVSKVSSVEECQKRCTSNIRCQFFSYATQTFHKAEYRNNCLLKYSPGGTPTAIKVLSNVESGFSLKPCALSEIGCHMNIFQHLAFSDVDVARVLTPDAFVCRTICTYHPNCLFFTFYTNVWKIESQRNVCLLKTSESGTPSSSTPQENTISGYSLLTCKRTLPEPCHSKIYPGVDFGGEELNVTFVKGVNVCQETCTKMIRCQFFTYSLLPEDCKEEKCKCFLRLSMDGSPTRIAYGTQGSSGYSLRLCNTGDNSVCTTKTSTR
T2 sequence (P00747 581-810 limits assumed, species assumed): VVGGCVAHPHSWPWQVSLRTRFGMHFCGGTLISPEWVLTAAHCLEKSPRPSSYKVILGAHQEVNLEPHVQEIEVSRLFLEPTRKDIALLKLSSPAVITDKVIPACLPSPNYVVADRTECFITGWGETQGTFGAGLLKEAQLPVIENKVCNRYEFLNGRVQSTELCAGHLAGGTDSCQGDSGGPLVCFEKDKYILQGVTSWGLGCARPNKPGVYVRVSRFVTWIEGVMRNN
T2 sequence (P00747 97-580 partner limits assumed, species assumed): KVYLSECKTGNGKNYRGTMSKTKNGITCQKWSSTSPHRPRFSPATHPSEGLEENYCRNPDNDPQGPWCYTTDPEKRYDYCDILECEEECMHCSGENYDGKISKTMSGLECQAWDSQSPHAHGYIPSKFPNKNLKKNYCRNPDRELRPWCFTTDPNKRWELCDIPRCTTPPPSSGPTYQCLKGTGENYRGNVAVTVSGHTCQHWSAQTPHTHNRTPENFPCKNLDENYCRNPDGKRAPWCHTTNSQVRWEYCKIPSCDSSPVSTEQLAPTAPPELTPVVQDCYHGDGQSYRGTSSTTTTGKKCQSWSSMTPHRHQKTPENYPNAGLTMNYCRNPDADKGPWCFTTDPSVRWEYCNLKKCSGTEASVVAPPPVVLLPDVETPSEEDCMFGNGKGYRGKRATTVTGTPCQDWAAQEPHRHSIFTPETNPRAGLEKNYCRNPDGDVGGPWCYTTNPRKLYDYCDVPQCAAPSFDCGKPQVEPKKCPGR
T5 sequence (P00748 373-615 limits assumed, other chains not shown): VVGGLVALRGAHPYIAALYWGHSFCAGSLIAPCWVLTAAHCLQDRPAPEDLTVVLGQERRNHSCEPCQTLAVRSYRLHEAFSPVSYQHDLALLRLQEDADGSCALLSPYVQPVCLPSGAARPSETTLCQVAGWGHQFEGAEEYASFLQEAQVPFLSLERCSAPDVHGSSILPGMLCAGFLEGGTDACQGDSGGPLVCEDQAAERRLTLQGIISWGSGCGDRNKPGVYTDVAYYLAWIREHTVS

N=C(N)c1ccc2cc(OC(=O)c3ccc(N=C(N)N)cc3)ccc2c1 [Futhan, nafamostat mesilate]
remaining activity at 100 µg/mL [1]: 4.6% | remaining activity at 100 µg/mL [2]: -1.5% | remaining activity at 100 µg/mL [3]: 0.8% | remaining activity at 100 µg/mL [4]: 1.1% | remaining activity at 100 µg/mL [5]: 3.8% | % Residual activity, Trypsin [6]: −0.5% | % Residual activity, LTR 1 ([7]; LTR 1 EDTA plasma diluted 10 or 20-fold): −0.7% | % Residual activity, LTR 2 ([7]; LTR 2 EDTA plasma diluted 10 or 20-fold): 0.2% | % Residual activity, LTR 3 ([7]; LTR 3 EDTA plasma diluted 10 or 20-fold): −1.1% | Inhibition of all of the enzymes examined, in words [8]: very efficient inhibitors for all of the enzymes examined | Prevention of in vitro activation of complement in plasma samples, in words [9]: can prevent the in vitro activation of complement by any of the three known pathways
